Measurements taken from article PMC3439991 (Thrombosis, 2012).
Read-outs that look alike come from different tables or passages of the source.

How the values were obtained:
[1] = Cumulative urine excretion of argatroban, by ecarin clotting time (ECT); type: in vivo; details: pigs, s.c., similar for both formulations
Procedure: The blood samples were drawn into plastic tubes containing 3.13% sodium citrate before dosing and at definite time intervals thereafter. Then, blood samples were centrifuged (1000 g for 10 min) to obtain citrated plasma. Urine samples were also collected using a bladder catheter and frozen at −20°C until further analysis.
Furthermore, antithrombin activity in plasma samples was also determined by ecarin chromogenic assay (ECA).

[2] = cited from earlier work
[3] = pig, in vivo, sc
Excerpt: Furthermore, systemic effects as bleeding were investigated by examination of all major tissues and organs.

[4] = cited from earlier work; remark: listed apart in the source
[5] = after subcutaneous administration

Row | Compound | administered antithrombotic active amount recovered in urine (cumulative) [1] | solubility in water [2] | Local bleeding, toxic reactions, and other side effects [3] | half-life ([4]; administered intravenously) | half-life [4, 5] | period of stable plasma concentrations and antithrombotic activity [4, 5]
1 | CC1CNc2c(cccc2S(=O)(=O)N[C@@H](CCCNC(=N)N)C(=O)N2CC[C@@H](C)C[C@@H]2C(=O)O)C1 (stereo partly drawn) [Argatroban] | 15–20% | about 1 mg·mL^−1 | not observed | – | – | –
2 | hirudin | – | – | – | about 60 min | 2 h | approximately 12 hours
